Experimental data taken from publication PMC9150102 (Journal of Medicinal Chemistry, 2022).

How the values were obtained:
SERCA2a = target: T1, SERCA2a (Rattus norvegicus, UniProt P11507); assay: SERCA2a ATPase activity in cardiac SR homogenates from healthy rats; format: biochemical
T1 construct: tissues from healthy and STZ rats were homogenized; from tissue; host or cells: Sprague Dawley rat left ventricle homogenates (healthy or STZ-diabetic)
Protocol: Measurements were performed in cardiac SR microsomes (guinea pig) and in whole tissue homogenates (rat). Cardiac preparations included SERCA2a and PLN. To test for PLN involvement in the effect of compounds, SERCA1 activity was measured in PLN-free microsomes (from guinea pig skeletal muscle) before and after reconstitution with the synthetic PLN1–32 inhibitory fragment at a ratio of 300:1 for PLN/SERCA. […] Either an increase in Vmax (rat) or a decrease in KdCa (increased Ca^2+ affinity) (guinea pig) stands for enhancement of SERCA function. […]
Left ventricles (LV) were dissected from rat and guinea -pig of healthy and failing preparations and frozen until use. Tissues were homogenized, subjected to centrifugation to obtain SR -enriched microsomes and sarcomeric proteins were extracted, as previously described 4. […]
In the case of rat hearts, cardiac homogenates were used to have sufficient material to replicate the experiments within a single animal. Hearts were excised from rats eight weeks after STZ injection. LV tissues from healthy and STZ rats were homogenized (1 g in 4 ml buffer) in a medium containing 300 mM sucrose, 50 mM K-phosphate, 10 mM NaF, 0.3 mM PMSF, 0.5 mM DTT, pH 7, and centrifuged at 35,000 g for 30 min. The final pellet was resuspended in the same buffer.
SERCA2a ATPase activity was measured as the rate of 32P-ATP release at multiple Ca2+ concentrations (100-2000 nM) in the absence and presence of tested compounds, as previously described5. Increasing concentrations of each compound were pre-incubated with 2 μg of cardiac preparations for 5 min at 4° C in 80 μl of a solution containing 100 mM KCl, 5 mM MgCl2, 1 μM A23187, 20 mM Tris, pH 7.5. Then, 20 μl of 5 mM Tris-ATP containing 50 nCi of 32P-ATP (3-10 Ci/mmol, Perkin Elmer) were added. The ATP hydrolysis was continued for 15 min at 37°C and the reaction was stopped by acidification with 100 μl of 20% ice-cold perchloric acid. 32P was separated by centrifugation with activated charcoal (Norit A, Serva) and the radioactivity was measured. SERCA2a-dependent ATPase activity was identified as the portion of total hydrolytic activity inhibited by cyclopiazonic acid (CPA, 10 µM). Technical replicates were used to ensure the reliability of single values. […]

[1] = test system: SR Ca^2+ uptake in STZ cardiomyocytes; assay: SR loading protocol (SR Ca2+ uptake under NCX inhibition) in patch-clamped STZ myocytes; format: cell-based, rat; conditions: 1 μM
STZ diabetic rats = assay: Echocardiography (hemodynamics) in STZ diabetic rats during i.v. infusion; format: in vivo, rat
Protocol: Drug effects reached a plateau at 15 min of infusion; 10 min after discontinuation of the infusion, most echo indexes affected by the compound returned to the basal level.
Echocardiographic parameters were measured before (basal) and at 15 and 30 min during drug infusion and 10 min after drug interruption under urethane anesthesia. Data are the mean ± SEM; all the results of echocardiographic indexes are summarized in Table S2; N = 13; *p < 0.05 (one-way RM ANOVA).
Diabetes was induced in Sprague Dawley male rats (150–175 g) by a single i.v. STZ group (50 mg/kg in citrate buffer) injection in the tail vein. Control (healthy group) rats received vehicle (citrate buffer).
Rats were studied by transthoracic echocardiographic under anesthesia (1.25 g/kg urethane, i.p). Left-ventricular end-diastolic (LVEDD) and end-systolic (LVESD) diameter, posterior wall (PWT), and interventricular septal thickness (IVST) were measured according to the American Society of Echocardiography guidelines.[16] FS was calculated as FS = (LVEDD – LVESD)/LVEDD. Trans-mitral flow velocity was measured (pulsed Doppler) to obtain early and late filling velocities (E and A waves) and E wave deceleration time (DT). […]
Hemodynamic studies in rats with diabetic cardiomyopathy
Control (healthy group) rats received STZ vehicle (citrate buffer). […]
were considered diabetic9.
Two-dimensionally guided M-mode recordings were […]
the American Society of Echocardiography guidelines13. Fractional shortening was calculated as FS = […]
E wave deceleration time (DT). […]
jugular vein for drug infusion in rats. Rats were randomly submitted to an echocardiographic study […]
intravenous infusion at the dose of 0.2 mg/kg/min. Echo parameters were measured at 15 and 30 min after infusion start and 10 min after drug interruption under urethane anesthesia. Data are mean ± SEM. *p<0.05 vs basal (one-way ANOVA for repeated measurements). […]
basal after 15 min after 30 min after 10 min

[2] = i.v. infusion 0.2 mg/kg/min, after 15 min
[3] = i.v. infusion 0.2 mg/kg/min, after 30 min

T1 sequence (P11507 1-997 isoform P11507-2): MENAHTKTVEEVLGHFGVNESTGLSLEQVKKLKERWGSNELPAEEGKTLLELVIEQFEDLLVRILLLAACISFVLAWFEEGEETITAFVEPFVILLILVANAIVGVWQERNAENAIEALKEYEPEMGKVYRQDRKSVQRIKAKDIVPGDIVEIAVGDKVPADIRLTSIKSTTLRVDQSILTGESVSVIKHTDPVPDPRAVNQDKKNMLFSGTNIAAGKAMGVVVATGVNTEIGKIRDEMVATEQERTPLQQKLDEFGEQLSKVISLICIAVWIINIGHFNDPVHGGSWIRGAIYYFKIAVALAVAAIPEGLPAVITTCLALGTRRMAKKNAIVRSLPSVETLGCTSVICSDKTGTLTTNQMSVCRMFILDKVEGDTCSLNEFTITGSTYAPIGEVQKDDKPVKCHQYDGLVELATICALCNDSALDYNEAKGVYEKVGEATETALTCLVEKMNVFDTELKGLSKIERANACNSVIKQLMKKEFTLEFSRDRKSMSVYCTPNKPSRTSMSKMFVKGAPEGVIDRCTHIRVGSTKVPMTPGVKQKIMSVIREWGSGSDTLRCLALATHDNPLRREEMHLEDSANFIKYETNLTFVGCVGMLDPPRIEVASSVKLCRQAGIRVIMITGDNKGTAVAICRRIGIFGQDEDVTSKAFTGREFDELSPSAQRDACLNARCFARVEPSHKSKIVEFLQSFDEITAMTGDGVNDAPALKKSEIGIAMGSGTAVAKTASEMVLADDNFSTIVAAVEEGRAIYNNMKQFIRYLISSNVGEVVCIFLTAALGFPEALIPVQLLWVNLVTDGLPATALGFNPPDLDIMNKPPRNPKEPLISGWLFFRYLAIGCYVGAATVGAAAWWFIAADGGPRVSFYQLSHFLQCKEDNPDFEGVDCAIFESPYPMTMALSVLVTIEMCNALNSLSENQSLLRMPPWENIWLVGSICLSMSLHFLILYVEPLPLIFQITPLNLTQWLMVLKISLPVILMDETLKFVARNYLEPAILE

With C[C@]12CC[C@H](CCCC(=O)O)C[C@@H]1[C@@H](O)C[C@@H]1[C@@H]2CC[C@]2(C)C(=O)CC[C@@H]12 [Compound 5] the “SERCA2a KdCa” value (SERCA2a; Cpd 100 nM) was 221 ± 24 nM, the “SERCA2a Vmax (µmol/min/mg)” value (SERCA2a; Cpd 100 nM) was 0,371 ± 0,021 µmol/min/mg and the “SERCA2a KdCa” value (SERCA2a; Cpd 300 nM) was 221 ± 21 nM. For the same compound, the “SERCA2a Vmax (µmol/min/mg)” value (SERCA2a; Cpd 300 nM) was 0,384 ± 0,023 µmol/min/mg, the “SERCA2a KdCa” value (SERCA2a; Cpd 500 nM) was 220 ± 24 nM and the “SERCA2a Vmax (µmol/min/mg)” value (SERCA2a; Cpd 500 nM) was 0,374 ± 0,031 µmol/min/mg. For the same compound, the “SERCA2a KdCa” value (SERCA2a; Cpd 1000 nM) was 219 ± 32 nM, the “SERCA2a Vmax (µmol/min/mg)” value (SERCA2a; Cpd 1000 nM) was 0,377 ± 0,029 µmol/min/mg and the “Ca2+ transient (CaT) decay time constant” value [1] was “sharply accelerated Ca^2+ transient (CaT) decay”. The “CaT amplitude” value [1] was “not significantly affected”, the “excitation release (ER) gain” value [1] was “increased excitation release (ER) gain” and the CO (STZ diabetic rats; 10 min after drug interruption) was 153,2±10,67 ml/min. For the same compound, the DT (STZ diabetic rats; 10 min after drug interruption) was 52,4±4,36 ms, the DT/E (STZ diabetic rats; 10 min after drug interruption) was 68,2±6,13 s2/mm and the E/A (STZ diabetic rats; 10 min after drug interruption) was 1,37±0,06. For the same compound, the E/DT (STZ diabetic rats; 10 min after drug interruption) was 16,5±1,78 m/s2, the “E/e'” value (STZ diabetic rats; 10 min after drug interruption) was 40,22±0,82 and the EF (STZ diabetic rats; 10 min after drug interruption) was 92,66±1,05%. For the same compound, the FS (STZ diabetic rats; 10 min after drug interruption) was 61,3±2,05%, the HR (STZ diabetic rats; 10 min after drug interruption) was 228±10 bpm and the IVSTd (STZ diabetic rats; 10 min after drug interruption) was 1,68 ± 0,07 mm. For the same compound, the IVSTs (STZ diabetic rats; 10 min after drug interruption) was 2,55 ± 0,10 mm, the LVEDD (STZ diabetic rats; 10 min after drug interruption) was 6,84 ± 0,17 mm and the LVESD (STZ diabetic rats; 10 min after drug interruption) was 2,64 ± 0,17 mm. The PWTd (STZ diabetic rats; 10 min after drug interruption) was 1,17 ± 0,07 mm, the PWTs (STZ diabetic rats; 10 min after drug interruption) was 2,42 ± 0,10 mm and the SV (STZ diabetic rats; 10 min after drug interruption) was 0,68±0,05 ml. The “a'” value (STZ diabetic rats; 10 min after drug interruption) was 26,22±1,31 mm/s, the “e'” value (STZ diabetic rats; 10 min after drug interruption) was 19,4±0,60 mm/s and the “e'/a'” value (STZ diabetic rats; 10 min after drug interruption) was 0,76±0,047. The “s'” value (STZ diabetic rats; 10 min after drug interruption) was 20,6±0,53 mm/s, the CO (STZ diabetic rats; [2]) was 177,2±11,27 ml/min and the DT (STZ diabetic rats; [2]) was 42,46±2,83 ms. For the same compound, the DT/E (STZ diabetic rats; [2]) was 49,52±3,44 s2/mm, the E/A (STZ diabetic rats; [2]) was 1,36±0,05 and the E/DT (STZ diabetic rats; [2]) was 21,49±1,61 m/s2. For the same compound, the “E/e'” value (STZ diabetic rats; [2]) was 37,49±1,2, the EF (STZ diabetic rats; [2]) was 90,68±1,4% and the FS (STZ diabetic rats; [2]) was 58,1±2,38%. The HR (STZ diabetic rats; [2]) was 268±15 bpm, the IVSTd (STZ diabetic rats; [2]) was 1,81±0,08 mm and the IVSTs (STZ diabetic rats; [2]) was 2,34±0,10 mm. The LVEDD (STZ diabetic rats; [2]) was 6,86±0,17 mm, the LVESD (STZ diabetic rats; [2]) was 2,87±0,18 mm and the PWTd (STZ diabetic rats; [2]) was 1,16±0,07 mm. For the same compound, the PWTs (STZ diabetic rats; [2]) was 2,59±0,09 mm, the SV (STZ diabetic rats; [2]) was 0,68±0,05 ml and the “a'” value (STZ diabetic rats; [2]) was 29,13±1,82 mm/s. The “e'” value (STZ diabetic rats; [2]) was 23,33±0,73 mm/s, the “e'/a'” value (STZ diabetic rats; [2]) was 0,84±0,07 and the “s'” value (STZ diabetic rats; [2]) was 22,4±0,86 mm/s. The CO (STZ diabetic rats; [3]) was 175,15±9,4 ml/min, the DT (STZ diabetic rats; [3]) was 42,15±2,74 ms and the DT/E (STZ diabetic rats; [3]) was 48,51±4,56 s2/mm. For the same compound, the E/A (STZ diabetic rats; [3]) was 1,34±0,06, the E/DT (STZ diabetic rats; [3]) was 23,18±2,32 m/s2 and the “E/e'” value (STZ diabetic rats; [3]) was 37,45±1,24. The EF (STZ diabetic rats; [3]) was 92,19±1,18%, the FS (STZ diabetic rats; [3]) was 60,7±2,31% and the HR (STZ diabetic rats; [3]) was 252±14 bpm. The IVSTd (STZ diabetic rats; [3]) was 1,71±0,1 mm, the IVSTs (STZ diabetic rats; [3]) was 2,55±0,13 mm and the LVEDD (STZ diabetic rats; [3]) was 6,94±0,15 mm. The LVESD (STZ diabetic rats; [3]) was 2,73±0,18 mm, the PWTd (STZ diabetic rats; [3]) was 1,22±0,07 mm and the PWTs (STZ diabetic rats; [3]) was 2,53±0,10 mm. The SV (STZ diabetic rats; [3]) was 0,71±0,04 ml, the “a'” value (STZ diabetic rats; [3]) was 28,94±1,47 mm/s and the “e'” value (STZ diabetic rats; [3]) was 24,24±0,65 mm/s. For the same compound, the “e'/a'” value (STZ diabetic rats; [3]) was 0,86±0,05, the “s'” value (STZ diabetic rats; [3]) was 21,8±0,78 mm/s and the “systolic function” value (STZ diabetic rats; i.v. infusion at a single dose) was “did not affect systolic function significantly”.
For C[C@]12CC[C@H](CC(=O)O)C[C@@H]1[C@@H](O)C[C@@H]1[C@@H]2CC[C@]2(C)C(=O)CC[C@@H]12 [Compound 8], the “SERCA2a KdCa” value (SERCA2a; Cpd 100 nM) was 214 ± 17 nM, the “SERCA2a Vmax (µmol/min/mg)” value (SERCA2a; Cpd 100 nM) was 0,344 ± 0,038 µmol/min/mg and the “SERCA2a KdCa” value (SERCA2a; Cpd 300 nM) was 210 ± 13 nM. For the same compound, the “SERCA2a Vmax (µmol/min/mg)” value (SERCA2a; Cpd 300 nM) was 0,366 ± 0,027 µmol/min/mg, the “SERCA2a KdCa” value (SERCA2a; Cpd 500 nM) was 260 ± 35 nM and the “SERCA2a Vmax (µmol/min/mg)” value (SERCA2a; Cpd 500 nM) was 0,313 ± 0,028 µmol/min/mg. The “SERCA2a KdCa” value (SERCA2a; Cpd 1000 nM) was 273 ± 32 nM and the “SERCA2a Vmax (µmol/min/mg)” value (SERCA2a; Cpd 1000 nM) was 0,320 ± 0,020 µmol/min/mg.
